# Results: BindingDB's records for doi:10.1016/j.bmcl.2009.07.083 (Bristol-Myers Squibb, 2009)
# Molecular target: Potassium voltage-gated channel subfamily A member 5 (Homo sapiens, UniProt P22460)
# Experiment: Inhibition of human Kv1.5 channel expressed in mouse L929 cells
# Chain of Potassium voltage-gated channel subfamily A member 5 (P22460 whole entry): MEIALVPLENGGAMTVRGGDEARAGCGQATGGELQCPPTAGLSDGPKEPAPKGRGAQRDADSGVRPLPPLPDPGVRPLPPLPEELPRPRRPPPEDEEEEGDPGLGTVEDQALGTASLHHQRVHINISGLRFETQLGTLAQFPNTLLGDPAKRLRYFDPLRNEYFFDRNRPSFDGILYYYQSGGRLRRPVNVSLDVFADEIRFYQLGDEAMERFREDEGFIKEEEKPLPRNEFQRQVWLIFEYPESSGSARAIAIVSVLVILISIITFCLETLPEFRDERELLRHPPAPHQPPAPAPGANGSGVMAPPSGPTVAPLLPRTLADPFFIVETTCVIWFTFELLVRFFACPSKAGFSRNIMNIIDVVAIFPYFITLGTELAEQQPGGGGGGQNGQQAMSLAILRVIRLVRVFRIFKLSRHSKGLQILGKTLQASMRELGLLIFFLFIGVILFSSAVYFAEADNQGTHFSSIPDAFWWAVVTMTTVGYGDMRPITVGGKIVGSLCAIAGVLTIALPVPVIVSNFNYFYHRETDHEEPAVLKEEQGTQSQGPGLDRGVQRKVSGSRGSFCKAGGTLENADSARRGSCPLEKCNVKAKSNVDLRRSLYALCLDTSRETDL
row,IC50 [nM],SMILES
1,> 1000,"CC1=Nc2ccnn2C(c2ccc(Cl)c(Cl)c2)C1c1nc2cc(S(=O)(=O)Nc3ccccc3)ccc2n1C (centres undefined) [2-(7-(3,4-dichlorophenyl)-5-methyl-4,7-dihydropyrazolo[1,5-a]pyrimidin-6-yl)-1-methyl-N-phenyl-1H-benzo[d]imidazole-5-sulfonamide]"
2,> 1000,"CC1=Nc2ccnn2C(c2ccc(Cl)c(Cl)c2)C1c1nnc(-c2ccccc2)o1 (centres undefined) [2-(7-(3,4-dichlorophenyl)-5-methyl-4,7-dihydropyrazolo[1,5-a]pyrimidin-6-yl)-5-phenyl-1,3,4-oxadiazole]"
3,> 1000,"CC1=Nc2ccnn2C(c2ccc(Cl)c(Cl)c2)C1c1ncc(-c2ccccc2)o1 (centres undefined) [2-(7-(3,4-dichlorophenyl)-5-methyl-4,7-dihydropyrazolo[1,5-a]pyrimidin-6-yl)-5-phenyloxazole]"
4,> 1000,"CCCCc1nnc(C2C(C)=Nc3ccnn3C2c2ccc(Cl)c(Cl)c2)o1 (centres undefined) [2-butyl-5-(7-(3,4-dichlorophenyl)-5-methyl-4,7-dihydropyrazolo[1,5-a]pyrimidin-6-yl)-1,3,4-oxadiazole]"
5,> 1000,"CC1=Nc2ccnn2C(c2ccc(Cl)c(Cl)c2)C1c1nc2cc(S(C)(=O)=O)ccc2n1C (centres undefined) [7-(3,4-dichlorophenyl)-5-methyl-6-(1-methyl-5-(methylsulfonyl)-1H-benzo[d]imidazol-2-yl)-4,7-dihydropyrazolo[1,5-a]pyrimidine]"
6,150,"CC1=Nc2ccnn2C(c2ccc(Cl)c(Cl)c2)C1c1nc2c(C)cccc2[nH]1 (centres undefined) [7-(3,4-dichlorophenyl)-5-methyl-6-(7-methyl-1H-benzo[d]imidazol-2-yl)-4,7-dihydropyrazolo[1,5-a]pyrimidine]"
7,200,"CC1=Nc2ccnn2C(c2ccc(Cl)c(Cl)c2)C1c1nc2cc(C)ccc2n1C (centres undefined) [7-(3,4-dichlorophenyl)-6-(1,5-dimethyl-1H-benzo[d]imidazol-2-yl)-5-methyl-4,7-dihydropyrazolo[1,5-a]pyrimidine]"
8,150,"CC1=Nc2ccnn2C(c2ccc(Cl)c(Cl)c2)C1c1nc2cccc(F)c2n1C (centres undefined) [7-(3,4-dichlorophenyl)-6-(7-fluoro-1-methyl-1H-benzo[d]imidazol-2-yl)-5-methyl-4,7-dihydropyrazolo[1,5-a]pyrimidine]"
9,> 1000,"CC(=O)Nc1ccc2c(c1)nc(C1C(C)=Nc3ccnn3C1c1ccc(Cl)c(Cl)c1)n2C (centres undefined) [N-(2-(7-(3,4-dichlorophenyl)-5-methyl-4,7-dihydropyrazolo[1,5-a]pyrimidin-6-yl)-1-methyl-1H-benzo[d]imidazol-5-yl)acetamide]"
